Laboratory results reported in ChEMBL document CHEMBL1201862, “PubChem BioAssay data set” (2004).
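The compound was tested at five concentrations on cells cultured in 96-well plates, with a 48-hour exposure period. Abbreviation: GI50, concentration required for 50% inhibition of growth.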 Calls of active or inactive are those of the source. Rule as the data show it: active = GI50 up to about 1.1 µM and inactive = higher.

What was measured:
Test in all cases: DTP human tumour cell line panel, 48 h
A549 = test system: A549
K562 = test system: K562
COLO 205 = test system: COLO 205
SN12C = test system: SN12C
SF-539 = test system: SF-539
Malme-3M = test system: Malme-3M
HCT-116 = test system: HCT-116
A498 = test system: A498
HOP-92 = test system: HOP-92
MCF7 = test system: MCF7
SF-295 = test system: SF-295
SK-MEL-28 = test system: SK-MEL-28
ACHN = test system: ACHN
SNB-19 = test system: SNB-19
SK-OV-3 = test system: SK-OV-3
NCI-H23 = test system: NCI-H23
MDA-MB-231 = test system: MDA-MB-231
RPMI-8226 = test system: RPMI-8226
OVCAR-4 = test system: OVCAR-4

Measured: GI50

COc1cc(OC)c2c(=O)c3cccc(C)c3n(C)c2c1
inactive: A549 83.2 µM | K562 25.8 µM | COLO 205 67 µM | SN12C > 100 µM | SF-539 68.5 µM | Malme-3M 98.2 µM | HCT-116 48.3 µM | A498 > 100 µM | HOP-92 83.6 µM | MCF7 34 µM | SF-295 57.7 µM | SK-MEL-28 50.1 µM | ACHN 51.3 µM | SNB-19 > 100 µM | SK-OV-3 > 100 µM | NCI-H23 > 100 µM | MDA-MB-231 > 100 µM | RPMI-8226 17.9 µM | OVCAR-4 64 µM

CC(C)(C)OC(=O)NCC(C#N)CNC(=O)OC(C)(C)C
inactive: A549 > 100 µM | K562 > 100 µM | COLO 205 > 100 µM | SN12C > 100 µM | SF-539 > 100 µM | Malme-3M > 100 µM | HCT-116 > 100 µM | A498 > 100 µM | HOP-92 > 100 µM | MCF7 > 100 µM | SF-295 > 100 µM | SK-MEL-28 > 100 µM | ACHN > 100 µM | SNB-19 > 100 µM | SK-OV-3 > 100 µM | NCI-H23 > 100 µM | MDA-MB-231 > 100 µM | RPMI-8226 > 100 µM | OVCAR-4 > 100 µM

COc1ccc2c(c1)NC1(CCN(CCCC(=O)c3ccc(F)cc3)CC1)N=N2
inactive: A549 36.4 µM | K562 19.4 µM | COLO 205 14.5 µM | SN12C 21 µM | SF-539 19.8 µM | Malme-3M 15.2 µM | HCT-116 17.1 µM | A498 28.4 µM | HOP-92 29.9 µM | MCF7 17.4 µM | SF-295 19.6 µM | SK-MEL-28 20 µM | ACHN 27.5 µM | SNB-19 35.3 µM | SK-OV-3 33.4 µM | NCI-H23 25.8 µM | MDA-MB-231 22.5 µM | RPMI-8226 16.6 µM | OVCAR-4 27.4 µM

Cc1c[n+]([O-])c2ccccc2[n+]1[O-]
inactive: A549 > 100 µM | K562 > 100 µM | COLO 205 > 100 µM | SN12C > 100 µM | SF-539 > 100 µM | Malme-3M > 100 µM | HCT-116 > 100 µM | A498 > 100 µM | HOP-92 > 100 µM | MCF7 > 100 µM | SF-295 > 100 µM | SK-MEL-28 > 100 µM | ACHN > 100 µM | SNB-19 > 100 µM | SK-OV-3 > 100 µM | NCI-H23 > 100 µM | MDA-MB-231 > 100 µM | RPMI-8226 > 100 µM | OVCAR-4 > 100 µM

CCCCCCCCOc1ccc(/C=C/C2=[N+](CCO)CCO2)cc1
inactive: A549 2.7 µM | K562 2.07 µM | COLO 205 2.42 µM | SN12C 3.18 µM | SF-539 3.12 µM | Malme-3M 3.04 µM | HCT-116 2.7 µM | A498 2.9 µM | HOP-92 2.34 µM | MCF7 4.65 µM | SF-295 3.96 µM | SK-MEL-28 4.53 µM | ACHN 3.69 µM | SNB-19 3.83 µM | SK-OV-3 2.54 µM | NCI-H23 2.23 µM | MDA-MB-231 3.78 µM | RPMI-8226 2.2 µM | OVCAR-4 3.6 µM

CC1C(=O)OC2CC[N+]3([O-])CC=C(COC(=O)C(C)(O)C1(C)O)C23 (stereo not drawn)
inactive: A549 > 100 µM | K562 > 100 µM | COLO 205 > 100 µM | SN12C > 100 µM | SF-539 > 100 µM | Malme-3M > 100 µM | HCT-116 > 100 µM | A498 > 100 µM | HOP-92 > 100 µM | MCF7 > 100 µM | SF-295 > 100 µM | SK-MEL-28 > 100 µM | ACHN > 100 µM | SNB-19 > 100 µM | SK-OV-3 > 100 µM | NCI-H23 > 100 µM | MDA-MB-231 > 100 µM | RPMI-8226 > 100 µM | OVCAR-4 > 100 µM

COc1ccc(OCC(=N/NC(=O)c2ccncc2)/N=C/c2ccncc2)cc1
inactive: A549 > 100 µM | K562 57.9 µM | COLO 205 74 µM | SN12C > 100 µM | SF-539 > 100 µM | Malme-3M > 100 µM | HCT-116 83.9 µM | A498 59.3 µM | HOP-92 29.2 µM | MCF7 54.6 µM | SF-295 42.9 µM | SK-MEL-28 75.5 µM | ACHN > 100 µM | SNB-19 > 100 µM | SK-OV-3 94.4 µM | NCI-H23 > 100 µM | MDA-MB-231 > 100 µM | RPMI-8226 40.7 µM | OVCAR-4 > 100 µM
